Biological target: recombinant human ACC1 (rhACC1) (Homo sapiens (Human), UniProt Q13085)
Assay: Transcreener ADP detection FP assay, direct inhibition of rhACC1
Assay type: biochemical
Details: Geomean IC50, n ≥ 2 unless * then n = 1; 50 μM ATP, 30 μM acetyl-CoA
Experimental: The direct inhibition of ACC1 for the compounds of the present invention was determined using preparations of recombinant human ACC1 (rhACC1) (SEQ ID NO. 1)
Two liters of SF9 cells, infected with recombinant baculovirus containing full length human ACC1 cDNA, were suspended in ice-cold lysis buffer (25 mM Tris, pH 7.5; 150 mM NaCl; 10% glycerol; 5 mM imidazole (EMD Bioscience; Gibbstown, NJ); 2 mM TCEP (BioVectra; Charlottetown, Canada); Benzonase nuclease (10000 U/100 g cell paste; Novagen; Madison, WI); EDTA-free protease inhibitor cocktail (1 tab/50 ml; Roche Diagnostics; Mannheim, Germany). Cells were lysed by 3 cycles of freeze-thaw and centrifuged at 40,000×g for 40 minutes (4° C.). Supernatant was directly loaded onto a HisTrap FF crude column (GE Healthcare; Piscataway, NJ) and eluted with an imidazole gradient up to 0.5 M over 20 column volumes (CV). ACC1-containing fractions were pooled and diluted 1:5 with 25 mM Tris, pH 7.5, 2 mM TCEP, 10% glycerol and direct loaded onto a CaptoQ (GE Healthcare) column and eluted with an NaCl gradient up to 1 M over 20 CV's. Phosphate groups were removed from purified ACC1 by incubation with lambda phosphatase (100 U/10 μM target protein; New England Biolabs; Beverly, MA) for 14 hours at 4° C.; okadaic acid was added (1 μM final concentration; Roche Diagnostics) to inhibit the phosphatase. Purified ACC1 was exchanged into 25 mM Tris, pH 7.5, 2 mM TCEP, 10% glycerol, 0.5 M NaCl by 6 hour dialysis at 4° C. Aliquots were prepared and frozen at −80° C.
Measurement of rhACC1 Inhibition rhACC1 was assayed in a Corning #3820 (Corning, Tewksbury, MA) 384-well plate using the Transcreener ADP detection FP assay kit (Bellbrook Labs, Madison, Wisconsin) using the manufacturer's recommended conditions for a 50 μM ATP reaction. The final conditions for the assay were 50 mM HEPES, pH 7.2, 10 mM MgCl2, 7.5 mM tripotassium citrate, 2 mM DTT, 0.1 mg/mL BSA, 30 μM acetyl-CoA, 50 μM ATP, and 10 mM KHCO3. Typically, a […] was run for 60 min at room temp, and 10 μl of Transcreener stop and detect buffer was added and the combination incubated at room temp for an overnight (18 hours). The data was acquired on an Envision Fluorescence reader (PerkinElmer) using a 620 excitation Cy5 FP general dual mirror, 620 excitation Cy5 FP filter, 688 emission (S) and a 688 (P) emission filter.

| SMILES | IC50 |
| --- | --- |
| COc1c(C)cc(C(=O)N2CCC3(CC2)CC(=O)c2nc(C(C)(C)C)sc2C3)c2[nH]ncc12 [Example 36, 2-(tert-butyl)-1′-(4-methoxy-5-methyl-1H-indazole-7-carbonyl)-5H-spiro[benzo[d]thiazole-6,4′-piperidin]-4(7H)-one] | 23.2 nM |
| CCNc1ccc2c(C)cc(C(=O)N3CCC4(CC3)CC(=O)c3nc(C(C)(C)C)sc3C4)cc2n1 [Example 39, 2-(tert-butyl)-1′-(2-(ethylamino)-5-methylquinoline-7-carbonyl)-5H-spiro[benzo[d]thiazole-6,4′-piperidin]-4(7H)-one] | 6.4 nM |
| CNc1ccc2c(OC)cc(C(=O)N3CCC4(CC3)CC(=O)c3nc(C(C)(C)C)sc3C4)cc2n1 [Example 40, 2-(tert-butyl)-1′-(5-methoxy-2-(methylamino)quinoline-7-carbonyl)-5H-spiro[benzo[d]thiazole-6,4′-piperidin]-4(7H)-one] | 1.5 nM |
| COc1ccnc2c(C)cc(C(=O)N3CCC4(CC3)CC(=O)c3nc(C(C)(C)C)sc3C4)cc12 [Example 41, 2-(tert-butyl)-1′-(4-methoxy-8-methylquinoline-6-carbonyl)-5H-spiro[benzo[d]thiazole-6,4′-piperidin]-4(7H)-one] | 15.3 nM |
| COc1cc(C(=O)N2CCC3(CC2)CC(=O)c2nc(C(C)(C)C)sc2C3)cc2c(OC)cncc12 [Example 43, 2-(tert-butyl)-1′-(4,8-dimethoxyisoquinoline-6-carbonyl)-5H-spiro[benzo[d]thiazole-6,4′-piperidin]-4(7H)-one] | 5.2 nM |
| Cc1n[nH]c2c(C)cc(C(=O)N3CCC4(CC3)CC(=O)c3nc(C(C)(C)C)sc3C4)cc12 [Example 45] | 7.6 nM |
| COc1nccc2ccc(C(=O)N3CCC4(CC3)CC(=O)c3nc(C(C)(C)C)sc3C4)cc12 [Example 46] | 85.9 nM |
| Cc1cc(C(=O)N2CCC3(CC2)CC(=O)c2nc(C(C)(C)C)sc2C3)cc2cccnc12 [Example 48] | 10000 nM |
| COc1cc(C(=O)N2CCC3(CC2)CC(=O)c2nc(C(C)(C)C)sc2C3)cc2c(C)n[nH]c12 [Example 49] | 6.4 nM |
| Cc1cc(C(=O)N2CCC3(CC2)CC(=O)c2nc(C(C)(C)C)sc2C3)cc2c(Cl)n[nH]c12 [Example 50] | 5.4 nM |
| Cc1c[nH]c2cc(C(=O)N3CCC4(CC3)CC(=O)c3nc(C(C)(C)C)sc3C4)ccc12 [Example 51] | 22.4 nM |
| Cc1cc(C(=O)N2CCC3(CC2)CC(=O)c2nc(C(C)(C)C)sc2C3)c(O)c2ccccc12 [Example 52] | 2.4 nM |
| CNc1cc2ccccc2cc1C(=O)N1CCC2(CC1)CC(=O)c1nc(C(C)(C)C)sc1C2 [Example 53] | 18.1 nM |
| Cc1ccc(C)c2[nH]c(C(=O)N3CCC4(CC3)CC(=O)c3nc(C(C)(C)C)sc3C4)cc12 [Example 55] | 3.5 nM |
| COc1ccc(C)c2[nH]c(C(=O)N3CCC4(CC3)CC(=O)c3nc(C(C)(C)C)sc3C4)cc12 [Example 56] | 5.8 nM |
| CC(C)(C)c1nc2c(s1)CC1(CCN(C(=O)c3cc(O)c4ccccc4c3)CC1)CC2=O [Example 57] | 19.7 nM |
| COc1ccc2ccc(C(=O)N3CCC4(CC3)CC(=O)c3nc(C(C)(C)C)sc3C4)cc2c1 [Example 58] | 7.1 nM |
| COc1cccc2cc(C(=O)N3CCC4(CC3)CC(=O)c3nc(C(C)(C)C)sc3C4)[nH]c12 [Example 60] | 27.3 nM |
| Cc1cc(C(=O)N2CCC3(CC2)CC(=O)c2nc(C(C)(C)C)sc2C3)cc2[nH]ccc12 [Example 62] | 3.6 nM |
| CC(C)(C)c1nc2c(s1)CC1(CCN(C(=O)c3ccc4ccccc4c3O)CC1)CC2=O [Example 63] | 19.7 nM |
| Cc1c[nH]c2ccc(C(=O)N3CCC4(CC3)CC(=O)c3nc(C(C)(C)C)sc3C4)cc12 [Example 64] | 11.8 nM |
| CC(C)(C)c1nc2c(s1)CC1(CCN(C(=O)c3ccc4[nH]cc(Cl)c4c3)CC1)CC2=O [Example 65] | 13 nM |
| COc1cccc2ncc(C(=O)N3CCC4(CC3)CC(=O)c3nc(C(C)(C)C)sc3C4)cc12 [Example 66] | 115 nM |
| CN(C)c1cc(C(=O)N2CCC3(CC2)CC(=O)c2nc(C(C)(C)C)sc2C3)cc(-c2ccccc2)n1 [Example 68] | 3.9 nM |
| COc1cc(C(=O)N2CCC3(CC2)CC(=O)c2nc(C(C)(C)C)sc2C3)cc(-c2ccccc2)n1 [Example 69] | 16.1 nM |
| CC(C)(C)Nc1ccc2ccc(C(=O)N3CCC4(CC3)CC(=O)c3nc(C(C)(C)C)sc3C4)cc2n1 [Example 70] | 4.6 nM |
| CNc1cc(C(=O)N2CCC3(CC2)CC(=O)c2nc(C(C)(C)C)sc2C3)cc(-c2ccccc2)n1 [Example 71] | 13.6 nM |
| CC(C)(C)c1nc2c(s1)CC1(CCN(C(=O)c3ccc4nccc(O)c4c3)CC1)CC2=O [Example 72] | 10000 nM |

| SMILES | IC50 |
| --- | --- |
| CNc1nc2ccccc2cc1C(=O)N1CCC2(CC1)CC(=O)c1nc(C(C)(C)C)sc1C2 [Example 74] | 189 nM |
| COc1cc(C(=O)N2CCC3(CC2)CC(=O)c2nc(C(C)(C)C)sc2C3)c2[nH]ncc2c1 [Example 75] | 17.6 nM |
| Cc1cc(C(=O)N2CCC3(CC2)CC(=O)c2nc(C(C)(C)C)sc2C3)cc2ccn(C)c12 [Example 76] | 65.4 nM |
| CNc1nc2ccc(OC)cc2cc1C(=O)N1CCC2(CC1)CC(=O)c1nc(C(C)(C)C)sc1C2 [Example 77] | 9.4 nM |
| CC(C)(C)c1nc2c(s1)CC1(CCN(C(=O)c3cc(Cl)c4cc[nH]c4c3)CC1)CC2=O [Example 78] | 7.6 nM |
| COc1ccc2cc(C(=O)N3CCC4(CC3)CC(=O)c3nc(C(C)(C)C)sc3C4)cc(C)c2n1 [Example 80] | 109 nM |
| Cc1cc(C(=O)N2CCC3(CC2)CC(=O)c2nc(C(C)(C)C)sc2C3)cc2c1ccn2C [Example 82] | 6.1 nM |
| COc1cc(C(=O)N2CCC3(CC2)CC(=O)c2nc(C(C)(C)C)sc2C3)cc2c1ccn2C [Example 83] | 11.1 nM |
| Cc1c(O)c(C(=O)N2CCC3(CC2)CC(=O)c2nc(C(C)(C)C)sc2C3)cc2ccccc12 [Example 85] | 7 nM |
| COc1cc(C(=O)N2CCC3(CC2)CC(=O)c2nc(C(C)(C)C)sc2C3)nc2c(OC)cccc12 [Example 86] | 14.3 nM |
| Cc1cn(C)c2c(C)cc(C(=O)N3CCC4(CC3)CC(=O)c3nc(C(C)(C)C)sc3C4)cc12 [Example 87] | 6.2 nM |
| CC(C)(C)c1nc2c(s1)CC1(CCN(C(=O)c3ccc(Cl)c4[nH]ccc34)CC1)CC2=O [Example 88] | 15 nM |
| CC(C)(C)c1nc2c(s1)CC1(CCN(C(=O)c3ccc(Cl)c4cc[nH]c34)CC1)CC2=O [Example 89] | 6.3 nM |
| CC(C)(C)c1nc2c(s1)CC1(CCN(C(=O)c3cc(Cl)cc4cc[nH]c34)CC1)CC2=O [Example 90] | 9.6 nM |
| Cc1cccc2ccc(C(=O)N3CCC4(CC3)CC(=O)c3nc(C(C)(C)C)sc3C4)cc12 [Example 91] | 14 nM |
| Cc1c[nH]c2c(C)cc(C(=O)N3CCC4(CC3)CC(=O)c3nc(C(C)(C)C)sc3C4)cc12 [Example 92] | 2.4 nM |
| Cc1cc(C(=O)N2CCC3(CC2)CC(=O)c2nc(C(C)(C)C)sc2C3)cc2c1NCCC2 [Example 93] | 19.5 nM |
| COc1cc(C(=O)N2CCC3(CC2)CC(=O)c2nc(C(C)(C)C)sc2C3)cc2c(C)ccnc12 [Example 95] | 46.5 nM |
| Cc1ccnc2c(C)cc(C(=O)N3CCC4(CC3)CC(=O)c3nc(C(C)(C)C)sc3C4)cc12 [Example 96] | 26.1 nM |
| COc1cc(C(=O)N2CCC3(CC2)CC(=O)c2nc(C(C)(C)C)sc2C3)c2[nH]nc(C)c2c1 [Example 98] | 8.6 nM |
| COc1cc(C(=O)N2CCC3(CC2)CC(=O)c2nc(C(C)(C)C)sc2C3)cc2c(OC)nccc12 [Example 100] | 3.1 nM |
| COc1cnc2c(OC)cc(C(=O)N3CCC4(CC3)CC(=O)c3nc(C(C)(C)C)sc3C4)cc2c1 [Example 101] | 10.1 nM |
| COc1cc(C(=O)N2CCC3(CC2)CC(=O)c2nc(C(C)(C)C)sc2C3)cc2c1c(C)nn2C [Example 103] | 5.4 nM |
| COc1cc(C(=O)N2CCC3(CC2)CC(=O)c2nc(C(C)(C)C)sc2C3)cc2cc(C3CC3)cnc12 [Example 104] | 6.7 nM |
| CCc1cnc2c(OC)cc(C(=O)N3CCC4(CC3)CC(=O)c3nc(C(C)(C)C)sc3C4)cc2c1 [Example 105] | 33.6 nM |
| COc1cc(C(=O)N2CCC3(CC2)CC(=O)c2nc(C(C)(C)C)sc2C3)cc2cc[nH]c12 [Example 106] | 12.9 nM |
| CCc1n[nH]c2c(OC)cc(C(=O)N3CCC4(CC3)CC(=O)c3nc(C(C)(C)C)sc3C4)cc12 [Example 107] | 12.3 nM |

— patent publication US20240109915A1, “NOVEL ACC INHIBITORS” (Pfizer Inc., priority 2022, published 2024)
